What was measured:
[1] = test system: sheet-shaped human skeletal myoblast cell culture; assay: Cell survival rate confirmation test, preservative solution based on physiological saline solution (PI staining, flow cytometry); details: 2° C. to 8° C.; for cell survival rate: three days
Protocol: (§1) The sheet-shaped cell cultures were prepared using skeletal myoblast cells (with fibroblast cells contained therein) prepared from a human skeletal muscle by a usual or known method. A cell mixture of human skeletal myoblast cells and human fibroblast cells suspended in a 20% human serum-containing DMEM/F12 medium (Thermo Fisher Scientific Inc.) was seeded at 3.7×10^6 cells/well on a temperature-responsive culture dish (UpCell® 12 well Multi-well, CellSeed Inc.), and was then subjected to the sheet-formation cultivation at 37° C. under 5% CO2 for 12 to 26 hours. After the sheet-formation cultivation, the medium was removed, 700 μL of HBSS (+) (Thermo Fisher Scientific Inc.) which was chilled to 4° C. was added, and then the resultant was left to stand for 10 minutes. Then, gentle pipetting was conducted such as to detach the sheet-shaped cell culture completely.
After the sheet-shaped cell culture was completely detached, HBSS (+) was removed, and a fresh supply of room-temperature HBSS (+) was added to conduct rinsing. Such a washing step was repeated four times.
The sheet-shaped cell culture left to stand under the refrigerated conditions in (1) above was put to measurement of cell survival rate. After the sheet-shaped cell culture left to stand in the preservative solution for a predetermined period was dissociated with a trypsin-like protease, the cells were dispensed into a FACS tube to be 3.5×10^5 cells, followed by centrifugation, and the supernatant was discarded. To the resultant was added 3 ml of 0.5% BAS-containing PBS solution, and, after rinsing the cells by vortex, centrifugation was conducted, the supernatant was removed, and 500 μL of a propidium iodide (PI, Becton Dickinson) prepared to a final concentration of 0.6 μg/mL by use of a 0.5% BSA-containing PBS solution was added and mixed. […] The analysis was conducted using a flow cytometer (Becton Dickinson), and the proportion of PI-unstained cells contained in the whole cells admixed with PI was measured. […]

[2] = test system: sheet-shaped human skeletal myoblast cell culture; assay: Cell survival rate confirmation test, preservative solution based on Hanks' balanced salt solution HBSS (+) (PI staining, flow cytometry); details: 2° C. to 8° C.
Protocol: as §1, with “completely. The thus detached sheet-shaped cell culture naturally shrank.” for “completely.”
After the sheet-shaped cell culture was completely detached, HBSS (+) was removed, and a fresh supply of room-temperature HBSS (+) was added to conduct rinsing. […]
The sheet-shaped cell culture left to stand under the refrigerated conditions in (1) above was put to measurement of cell survival rate. […] The analysis was conducted using a flow cytometer (Becton Dickinson), and the proportion of PI-unstained cells contained in the whole cells admixed with PI was measured. […]

Molecule | cell survival rate as compared to the case of no addition of edaravone ([1]; 1 μM or 10 μM edaravone in physiological saline solution, five days) | cell survival rate as compared to HBSS (+) not admixed with edaravone ([2]; 100 μM edaravone in HBSS (+), three days to seven days) | lowering in the number of live cells from three days to seven days of preservation, compared to edaravone-nonadded HBSS (+) ([2]; HBSS (+)-based edaravone-added preservative solution (100 μM)) | cell survival rate ([1]; 10 μM vitamin E in physiological saline solution) | cell survival rate ([1]; 100 μM vitamin E in physiological saline solution)
CC1=NN(c2ccccc2)C(=O)C1 [edaravone, 3-methyl-1-phenyl-2-pyrazolin-5-one] | increased | higher cell survival rate | restrained | – | –
tocopherol [vitamin E] | – | – | – | approximately 65% | approximately 65%
